The subject of assay [1] is GAPDH. In words: inhibition of PEG-3 promoter-driven reporter – cell-based, HeLa, luciferase, CREF/GAPDH counter-screen panel, dose response (AID 624167). The conditions noted are these: CREF/GAPDH counter-screens. Background: The purpose of a counterscreen is to sort out artefacts and off-target activity.
Assay [2] has as its system Rat fibroblasts (CREF). The description is as above. The conditions noted are these: CREF/GAPDH counter-screens.
The test system of assay [3] is PEG-3. The assay is described as above. To be noted: HeLa PEG-Prom luciferase reporter, overnight, CREF/GAPDH counter-screens.
Assay in assay [4]: as above
The conditions noted are these: CREF/GAPDH counter-screens; GAPDH; mean of runs.

The target in assay [5] is PEG-3 (UniProt Q6IN02). Described as above. The conditions noted are these: HeLa PEG-Prom luciferase reporter, overnight, CREF/GAPDH counter-screens, mean of runs.
Sequence of PEG-3 (UniProt Q6IN02) (Q6IN02 whole entry, looked up): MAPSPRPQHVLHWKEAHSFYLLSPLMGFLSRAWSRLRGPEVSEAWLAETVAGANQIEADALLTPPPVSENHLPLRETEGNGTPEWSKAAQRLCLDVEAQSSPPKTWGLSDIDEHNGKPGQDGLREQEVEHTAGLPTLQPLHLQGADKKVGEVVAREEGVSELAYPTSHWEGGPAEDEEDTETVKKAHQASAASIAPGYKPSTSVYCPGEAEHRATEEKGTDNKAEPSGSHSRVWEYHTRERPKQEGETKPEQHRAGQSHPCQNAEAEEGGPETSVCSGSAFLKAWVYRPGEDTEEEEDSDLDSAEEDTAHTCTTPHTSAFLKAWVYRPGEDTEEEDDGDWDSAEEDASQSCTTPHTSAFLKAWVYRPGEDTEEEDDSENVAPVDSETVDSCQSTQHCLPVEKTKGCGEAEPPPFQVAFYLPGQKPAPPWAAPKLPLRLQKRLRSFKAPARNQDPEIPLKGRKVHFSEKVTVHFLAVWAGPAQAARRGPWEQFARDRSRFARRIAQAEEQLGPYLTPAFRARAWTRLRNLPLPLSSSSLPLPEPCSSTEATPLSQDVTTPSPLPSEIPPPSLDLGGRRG
Setting [6] is: run 1, dose range 1, individual replicate IC50 per panel.
The mark [7] stands for this setting: run 2, dose range 1, individual replicate IC50 per panel.

The source made the active and inactive calls.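 How the source made its calls: active means mean IC50 for reducing PEG3 promoter reporter signal at or below a set limit, with IC50 above the limit in both counter screens; inactive means the rest, including counter screen hits.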 A value given as a limit tells only on which side of the number the result lay.

As for `COc1ccccc1Nc1nc(-c2sc(NC(=O)c3ccco3)nc2C)cs1`, the IC50 (in general, the concentration at which inhibition is half-maximal) in assay [1] (setting [6]) was over 100 µM; in assay [1] (setting [7]) it was over 100 µM; in assay [2] (mean of runs), > 100 µM (inactive); in assay [2] (setting [6]) it was over 100 µM; in assay [2] (setting [7]), over 100 µM; in assay [3] (setting [6]), 7.41 µM. Moreover, the IC50 was over 100 µM in assay [3] (setting [7]) and > 100 µM (inactive) in assay [4]. Moreover, the IC50 result in assay [5] is “inactive”.

In the case of `O=C(CCSc1nc2ccccc2s1)N/N=C/c1c(O)ccc2ccccc12`, the IC50 in assay [1] (setting [6]) was over 100 µM; in assay [1] (setting [7]), over 100 µM; in assay [2] (mean of runs), > 100 µM (inactive); in assay [2] (setting [6]), over 100 µM; in assay [2] (setting [7]) it was over 100 µM; in assay [3] (setting [6]) it was 5.86 µM. For the same compound, the values for the IC50 in assay [3] (setting [7]), in assay [4] and in assay [5] were 2.71 µM, > 100 µM (inactive) and 4.29 µM, respectively.

Consider `CC(=O)NC(c1ccc(Cl)cc1Cl)c1ccc2cccnc2c1O` (centres undefined), for which the IC50 in assay [1] (setting [6]) is 31.5 µM; in assay [1] (setting [7]), 61.9 µM; in assay [2] (mean of runs), > 100 µM (inactive); in assay [2] (setting [6]), over 100 µM; in assay [2] (setting [7]), over 100 µM; in assay [3] (setting [6]), 0.852 µM. Also, the IC50 in assay [3] (setting [7]) was 2.68 µM; in assay [5], 1.77 µM. The IC50 result in assay [4] was “inactive”.

With `CCCC(=O)NC(c1ccc(C)cc1)c1ccc2cccnc2c1O` (centres undefined), the IC50 in assay [1] (setting [6]) was over 100 µM; in assay [1] (setting [7]), 74.7 µM; in assay [2] (mean of runs) it was > 100 µM (inactive); in assay [2] (setting [6]), over 100 µM; in assay [2] (setting [7]) it was over 100 µM; in assay [3] (setting [6]) it was 4.69 µM. Moreover, the values for the IC50 in assay [3] (setting [7]) and in assay [5] were 7.19 µM and 5.94 µM, respectively. The IC50 result in assay [4] is “inactive”.

`CN=c1sc2c(n1C)C(=O)c1ccccc1C2=O`: the IC50 was 29.9 µM in assay [1] (setting [6]); 48.4 µM in assay [1] (setting [7]); 4.98 µM in assay [2] (mean of runs); 4.97 µM in assay [2] (setting [6]); 5 µM in assay [2] (setting [7]); 9.56 µM in assay [3] (setting [6]). The IC50 is 10.3 µM in assay [3] (setting [7]) and 9.93 µM in assay [5]. Moreover, in assay [4], the IC50 result was “inactive”.

Regarding `O=C(CNC(=O)C(c1ccccc1)c1ccccc1)N/N=C/c1ccc(O)cc1O`, the IC50 was over 100 µM in assay [1] (setting [6]); over 100 µM in assay [1] (setting [7]); > 100 µM (inactive) in assay [2] (mean of runs); over 100 µM in assay [2] (setting [6]); over 100 µM in assay [2] (setting [7]); 3.59 µM in assay [3] (setting [6]). The IC50 in assay [3] (setting [7]) is over 100 µM; in assay [4], > 100 µM (inactive). The IC50 result in assay [5] is “inactive”.

For `COc1ccc(C(NC(=O)C(C)C)c2ccc3cccnc3c2O)cc1` (centres undefined), the IC50 was over 100 µM in assay [1] (setting [6]); over 100 µM in assay [1] (setting [7]); 23.3 µM in assay [2] (mean of runs); 12.3 µM in assay [2] (setting [6]); 34.3 µM in assay [2] (setting [7]); 3.71 µM in assay [3] (setting [6]). Also, the IC50 in assay [3] (setting [7]) was 5.68 µM; in assay [4], > 100 µM (inactive); in assay [5], 4.7 µM.

Take `CCCCC(=O)NC(c1ccccc1)c1ccc2cccnc2c1O` (centres undefined): the IC50 in assay [1] (setting [6]) was over 100 µM; in assay [1] (setting [7]), over 100 µM; in assay [2] (mean of runs), > 100 µM (inactive); in assay [2] (setting [6]), over 100 µM; in assay [2] (setting [7]), over 100 µM; in assay [3] (setting [6]) it was 2.84 µM. For the same compound, the IC50 was over 100 µM in assay [3] (setting [7]) and > 100 µM (inactive) in assay [4]. Also, the IC50 entry in assay [5] is “inactive”.

For `CN1CCC2(CC1)N=C(c1ccc(F)cc1)C(=S)N2C(=O)c1ccc(C(C)(C)C)cc1`, the IC50 is 20.4 µM in assay [1] (setting [6]); 20.6 µM in assay [1] (setting [7]); 36.5 µM in assay [2] (mean of runs); 28.6 µM in assay [2] (setting [6]); 44.5 µM in assay [2] (setting [7]); 6.48 µM in assay [3] (setting [6]). For the same compound, the IC50 in assay [3] (setting [7]) is 1.01 µM; in assay [4], 20.5 µM; in assay [5], 3.75 µM.

As for `N=c1n(CC(=O)c2ccc([N+](=O)[O-])cc2)c2ccccc2n1Cc1ccc(Cl)cc1`, the IC50 in assay [1] (setting [6]) was over 80 µM; in assay [1] (setting [7]), 33.3 µM; in assay [2] (mean of runs), 27 µM; in assay [2] (setting [6]), 26.4 µM; in assay [2] (setting [7]), 27.6 µM; in assay [3] (setting [6]) it was 9.65 µM. Further, the IC50 was 8.76 µM in assay [3] (setting [7]) and 9.2 µM in assay [5]. The IC50 result in assay [4] is “inactive”.

For `COc1ccc(/C=C2/CCCC(CN(C)C)C2=O)cc1` (centres undefined), the IC50 is 38.2 µM in assay [1] (setting [6]); 23.9 µM in assay [1] (setting [7]); 28.8 µM in assay [2] (mean of runs); 23.6 µM in assay [2] (setting [6]); 34 µM in assay [2] (setting [7]); 11.3 µM in assay [3] (setting [6]). Moreover, the IC50 in assay [3] (setting [7]) is 8.07 µM; in assay [5] it was 9.68 µM. Besides, in assay [4], the IC50 entry was “inactive”.

(Values after PubChem BioAssay AID624167 (Sanford-Burnham Center for Chemical Genomics, 2012).)
